Laboratory results: patent US20060014704A1, “Compounds and their preparation for the treatment of Alzheimer's disease by inhibiting beta-amyloid peptide production” (priority 2004, published 2006)
“Also recorded” adds a separate entry of the source.

Key:
[1] = test system: Aβ40 and Aβ42 production, CHO cells stably transfected with human APP695; experiment: Secreted Aβ40/Aβ42 ELISA in CHO cells expressing human APP (CHO-APP cells); assay type: cell-based, Chinese hamster; parameters: key to Aβ42-lowering activity: Aβ42-lowering activity (“Yes”); no profound effects (“No”); non-determined (“ND”); Ginsenosides that affected cell viability are indicated as “Cytotoxic.”; settings: for Aβ42-lowering activity: summary of Tables 1-3; for inhibitory effects on Aβ40 production / inhibitory effects on Aβ42 production: ginsenosides of unprocessed ginseng, 8 hours, FIG. 10 (50 μM)
Method: The CHO cells were treated with the indicated compounds (at 50 μg/ml) for 8 hrs. Aβ42 levels in the medium were measured by ELISA and normalized to intracellular full-length APP.
The potential effects of ginsenosides and their analogues in treating AD were examined. First, a number of ginsenosides were screened based on their effects on Aβ generation. The effects of various ginsenosides on Aβ (e.g., Aβ40 and Aβ42) production was initially accessed by incubating the Chinese hamster ovary (CHO) cells expressing human APP(CHO-APP cells) with each ginsenoside purified from unprocessed ginseng (known as “white ginseng”). These representative ginsenosides included Rb1, Rb2, Rc, Rd, Re, Re, Rg1 and Rg2 and differ in their side chains and sugar moieties.
After 8 hours of incubation, the media were collected and the levels of secreted Aβ40 and Aβ42 were determined by ELISA.

[2] = test system: Aβ40 and Aβ42 production, CHO-APP/PS1 cells; experiment: Secreted Aβ ELISA in CHO-APP/PS1 cells (wild-type PS1); assay type: cell-based, Chinese hamster; settings: 50 μM, 8 hrs, FIG. 11; for secretion of Aβ42: heat-processing derived ginsenosides
Method: The effects of Rg5 on the Aβ42 generation were much smaller as compared to Rgk351 and Rk1.
FIG. 10 depicts the effects of native ginsenosides on Aβ42 production. CHO cells stably transfected with human APP695 together with either wild-type (A, CHO-APP/PS1 cells) or ΔE9 FAD mutant (B, CHO-APP/ΔE9PS1 cells) forms of PS1 were used. Cells were treated with the indicated compounds (at 50 μM) for 8 hrs. Levels of secreted Aβ40 and Aβ42 in the medium were determined by ELISA and normalized to intracellular full-length APP. In CHO-APP/PS1 cells, average Aβ amounts in control samples were 320 pM for Aβ40 and 79 pM for Aβ42. The relative levels of Aβ and Aβ42 were normalized to values obtained from non-treated and vehicle-treated cells and are shown as % to control+s.d.). One of three representative experiments are shown.
CHO-APP/PS1 (A) and CHO-APP/ΔE9PS1 (B) cells were treated with the indicated compounds at 50 μM for 8 hrs and the levels of secreted Aβ40 and Aβ42 were determined as described in FIG. 1. […] The PS1-ΔE9 FAD mutation diminished the Aβ42 response to Rk1 treatment (B).

γ-secretase = γ-secretase (Homo sapiens, UniProt P49768); experiment: Cell-free γ-secretase assay (CHAPSO-solubilized membrane fractions, recombinant substrates, Aβ ELISA); assay type: biochemical; settings: cell-free γ-secretase assay, FIG. 15 (100 μM in A)
Method: (A) CHAPSO-solubilized membrane fractions were incubated with recombinant γ-secretase substrates together with the indicated compounds (at 100 μM) and the levels of Aβ42 and Aβ40 were determined by ELISA as described (27-29). (B) Dose-response of Aβ40 and Aβ42-lowering activity of Rk1 and (20S)Rg3 in a cell-free γ-secretase assay.
Next, the inhibitory effects of Rk1 and (20S)Rg3 on Aβ generation in an in vitro γ-secretase assay was studied. […] In contrast, naproxen, an NSAID without Aβ42-lowering activity, had no effects on Aβ42 production (FIG. 15A).

Structure (SMILES) | Aβ42-lowering activity [1] | inhibitory effects on Aβ40 production [1] | inhibitory effects on Aβ42 production [1] | also measured
CC(C)=CC/C=C(\C)[C@H]1CC[C@]2(C)[C@@H]1[C@H](O)C[C@@H]1[C@@]3(C)CC[C@H](O)C(C)(C)[C@@H]3[C@@H](O[C@@H]3O[C@H](CO)[C@@H](O)[C@H](O)[C@H]3O)C[C@]12C [Rh4] | No |  |  | 
CC(C)=CCC[C@](C)(O[C@@H]1O[C@H](CO[C@@H]2O[C@H](CO)[C@@H](O)[C@H](O)[C@H]2O)[C@@H](O)[C@H](O)[C@H]1O)[C@H]1CC[C@]2(C)[C@@H]1[C@H](O)C[C@@H]1[C@@]3(C)CC[C@H](O[C@@H]4O[C@H](CO)[C@@H](O)[C@H](O)[C@H]4O[C@@H]4O[C@H](CO)[C@@H](O)[C@H](O)[C@H]4O)C(C)(C)[C@@H]3CC[C@]12C [Rb1] | No | None | None | 
CC(C)=CCC[C@](C)(O)[C@H]1CC[C@]2(C)[C@@H]1[C@H](O)C[C@@H]1[C@@]3(C)CC[C@H](O)C(C)(C)[C@@H]3[C@@H](O[C@@H]3O[C@H](CO)[C@@H](O)[C@H](O)[C@H]3O)C[C@]12C [Rh1] | No |  |  | secretion of Aβ42 [2]: not significant; also recorded: not affected
CC(C)=CCC[C@](C)(O[C@@H]1O[C@H](CO[C@@H]2OC[C@H](O)[C@H](O)[C@H]2O)[C@@H](O)[C@H](O)[C@H]1O)[C@H]1CC[C@]2(C)[C@@H]1[C@H](O)C[C@@H]1[C@@]3(C)CC[C@H](O[C@@H]4O[C@H](CO)[C@@H](O)[C@H](O)[C@H]4O[C@@H]4O[C@H](CO)[C@@H](O)[C@H](O)[C@H]4O)C(C)(C)[C@@H]3CC[C@]12C [Rb2] | No | None | None | 
CC(C)=CCC[C@](C)(O[C@@H]1O[C@H](CO[C@@H]2OC[C@@H](O)[C@H](O)[C@H]2O)[C@@H](O)[C@H](O)[C@H]1O)[C@H]1CC[C@]2(C)[C@@H]1[C@H](O)C[C@@H]1[C@@]3(C)CC[C@H](O[C@@H]4O[C@H](CO)[C@@H](O)[C@H](O)[C@H]4O[C@@H]4O[C@H](CO)[C@@H](O)[C@H](O)[C@H]4O)C(C)(C)[C@@H]3CC[C@]12C [Rb3] | No |  |  | 
CC(C)=CCCC(C)(O)C1CCC2(C)C1C(O)CC1C3(C)CCC(OC4OC(CO)C(O)C(O)C4OC4OC(CO)C(O)C(O)C4O)C(C)(C)C3CCC12C [(20R)Rg3] | Yes |  |  | generation of Aβ42 (Aβ42 levels in the medium, ELISA, normalized to intracellular full-length APP) ([1]; 50 μg/ml, 8 hrs, FIG. 4): reduce the generation of Aβ42; potency of Aβ42-reducing activity (rank) [2]: Rk1>/=(20S)Rg3>Rg5>(20R)Rg3; secretion of Aβ42 [2]: not affected
CC(C)=CCC[C@](C)(O)[C@H]1CC[C@]2(C)[C@@H]1[C@H](O)C[C@@H]1[C@@]3(C)CC[C@H](O)C(C)(C)[C@@H]3[C@@H](O[C@@H]3O[C@H](CO)[C@@H](O)[C@H](O)[C@H]3O[C@@H]3O[C@@H](C)[C@H](O)[C@@H](O)[C@H]3O)C[C@]12C [Rg2] | No | None | None | 
C=C(CCC=C(C)C)[C@H]1CC[C@]2(C)[C@@H]1[C@H](O)C[C@@H]1[C@@]3(C)CC[C@H](O)C(C)(C)[C@@H]3[C@@H](O[C@@H]3O[C@H](CO)[C@@H](O)[C@H](O)[C@H]3O)C[C@]12C [Rk3] | No |  |  | 
COc1ccc2cc([C@H](C)C(=O)O)ccc2c1 [naproxen, reference compound] |  |  |  | Aβ42 generation in vitro (γ-secretase): no effects
